Active and inactive are the calls of the source. The rule behind the calls is not given here.
Assays:
Histone deacetylase = experiment: Inhibition of human HDAC in HeLa nuclear extracts
A549 [1] = experiment: Antiproliferative activity against human A549 cells after 3 days; format: functional, cell-based; settings: A549, 72 h
[2] = Dissociation constant, pKa of the compound; format: physicochemical
[3] = target: Histone deacetylase (Homo sapiens) (UniProt Q13547+O15379+Q9UBN7+Q92769+Q9UQL6+Q8WUI4+Q9BY41+Q96DB2+P56524+Q9UKV0+Q969S8); experiment: Inhibition of human HDAC in A549 cells assessed as increase in histone-H4 acetylation at 150 uM after 24 hrs by Western blot; format: cell-based
A549 [4] = experiment: Antiproliferative activity against human A549 cells at 1 mM after 3 days; format: functional; settings: A549, 72 h

Compound	IC50 (Histone deacetylase) [µM]	IC50 (A549 [1]) [µM]	pKa [2]	Activity [3]	inhibition at 1000 µM (A549 [4]) [%]
Br.CS(=O)(=O)SCCN	198	154	–	–	–
CCCC(CCC)C(=O)OCCSS(C)(=O)=O	9.6	154	–	–	–
CS(=O)(=O)SCCO	102	161	–	–	–
CCCC(CCC)C(=O)Oc1ccc(-c2cc(=S)ss2)cc1	56.4	89	–	–	–
Oc1ccc(-c2cc(=S)ss2)cc1	0.45	66	7.86	–	–
CCCC(CCC)C(=O)NCCSS(C)(=O)=O	17.5	–	–	–	–
CCCC(CCC)C(=O)O [VALPROIC ACID]	–	> 1000	–	Active	24

From ChEMBL document CHEMBL1142340 (Bioorg Med Chem Lett, 2008)
